Test results published in patent publication US20080161340A1, “Tetrahydroquinilinones, tetrahydronaphthyridones and derivatives thereof” (priority 2006, published 2008).

Experiments:
Type in all cases: cell-based
hCB1 = molecular target: T1, hCB1 (Homo sapiens, UniProt P21554); assay: cAMP assay (LANCE TR-FRET) in CHO-K1 cells stably expressing hCB1, agonist/inverse agonist; settings: intracellular cAMP, CHO-K1 hCB1 cells prestimulated with NKH-477, + agonist, − inverse agonist; for EC50: read-out: hCB1 EC50 class
T1 construct: host or cells: CHO-K1
T1 sequence (P21554 whole entry): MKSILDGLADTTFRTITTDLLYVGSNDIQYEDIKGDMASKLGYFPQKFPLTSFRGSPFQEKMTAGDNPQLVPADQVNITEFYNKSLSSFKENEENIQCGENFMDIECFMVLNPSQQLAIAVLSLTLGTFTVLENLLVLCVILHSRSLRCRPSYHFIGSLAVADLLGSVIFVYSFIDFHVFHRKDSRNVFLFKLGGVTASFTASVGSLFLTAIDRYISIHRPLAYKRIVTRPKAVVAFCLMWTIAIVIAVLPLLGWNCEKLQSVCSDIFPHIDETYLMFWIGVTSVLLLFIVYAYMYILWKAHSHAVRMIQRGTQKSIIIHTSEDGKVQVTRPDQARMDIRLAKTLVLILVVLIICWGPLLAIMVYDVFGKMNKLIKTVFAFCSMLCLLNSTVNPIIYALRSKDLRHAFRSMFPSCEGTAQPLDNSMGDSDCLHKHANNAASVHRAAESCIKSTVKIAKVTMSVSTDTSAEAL
Protocol: (§1) The ability of compounds to act as agonists or inverse agonists at human CB2 and CB1 receptors (hCB2, hCB1, respectively) was determined by measuring changes in intracellular cAMP levels. Chinese Hamster Ovary (CHO-K1) cell lines stably expressing hCB2 (Genebank: X74328) or hCB1 (Genebank: X54937) were purchased from Euroscreen (Gosselies, Belgium).
(§2) Cell lines were grown in suspension in EX-CELL 302 CHO Serum-free medium (Sigma, cat #14324C) supplemented with 1% Fetal Bovine Serum, glutamine and non-essential amino-acids under 0.4 mg/mL G418 selection.
(§3) Receptor mediated responses were determined by measuring changes in intracellular cAMP using LANCE cAMP detection kit (cat #AD0264, PerkinElmer, Wellesley, Mass.) based on time-resolved fluorescence resonance energy transfer (TR-FRET). Changes in cAMP were determined in cells pre-incubated with IBMX (isobutyl methylxanthine) and prestimulated with NKH-477 (a water soluble forskolin derivative, cat #1603, Tocris, Ellisville, Mo.) to increase basal cAMP levels as detailed below.
(§4) On the day of the experiment, cells were spun at low speed for 5 min at room temperature. The supernatant was removed and cells were resuspended in stimulation buffer (Hanks Buffered Salt Solution/5 mM HEPES, containing 0.5 mM IBMX (cat #17018, Sigma) and 0.02% BSA (PerkinElmer, cat #CR84-100)). Cell clumps were removed by filtering through cell strainer 40 μm (BD Falcon, Discovery Labware, Bedford, Mass.) and diluted to 2×10^5 cells/mL. Antibody supplied with the LANCE cAMP immunoassay kit was then added according to the manufacturer's instructions. An aliquot of cells was taken for un-induced controls. To the remaining cells was added NKH-477 (a water soluble forskolin derivative, Tocris cat #1603) to a final concentration of 2-8 μM. Cells were then incubated for 30 min at room temperature prior to adding to Proxiplates containing test compounds (final DMSO concentration was less than 0.5%) with a Multidrop bulk dispenser, followed by a sixty minute incubation at room temperature. The response was stopped by addition of the detection mix supplied with the LANCE kit.
(§5) The reagents were allowed to equilibrate for three hours prior to reading on an Envision multi-mode detector (PerkinElmer). TR-FRET was measured using a 330-380 nm excitation filter, a 665 nm emission filter, dichroic mirror 380 nm and Z=1 mm.
(§6) Cyclic AMP concentrations in each well were back-calculated from a cAMP standard curve run concurrently during each assay. Each plate contained 16 wells of forskolin stimulated cells and 16 wells of forskolin plus CP55,940-treated. CP55,940-treated cells were treated with CP55,940 (Tocris cat. # 0949) at 1 μm and the maximal response was used as the full range (100%) standard. WIN55,212 (Tocris cat. # 1038) was used as an internal standard. Concentrations of cAMP were expressed as a percent of the difference of these two groups of wells. Concentration-response data including ECso (the concentration of compound producing 50% of the maximal response) and intrinsic activity (the percent maximal activation compared to full activation by CP55,940) were determined using a four-parameter non-linear regression algorithm (Xlfit equation 251, IDBS).

hCB2 = molecular target: T2, hCB2 (Homo sapiens, UniProt P34972); assay: cAMP assay (LANCE TR-FRET) in CHO-K1 cells stably expressing hCB2, agonist/inverse agonist; settings: intracellular cAMP, CHO-K1 hCB2 cells prestimulated with NKH-477; + agonist, − inverse agonist
T2 construct: host or cells: CHO-K1
T2 sequence (P34972 whole entry): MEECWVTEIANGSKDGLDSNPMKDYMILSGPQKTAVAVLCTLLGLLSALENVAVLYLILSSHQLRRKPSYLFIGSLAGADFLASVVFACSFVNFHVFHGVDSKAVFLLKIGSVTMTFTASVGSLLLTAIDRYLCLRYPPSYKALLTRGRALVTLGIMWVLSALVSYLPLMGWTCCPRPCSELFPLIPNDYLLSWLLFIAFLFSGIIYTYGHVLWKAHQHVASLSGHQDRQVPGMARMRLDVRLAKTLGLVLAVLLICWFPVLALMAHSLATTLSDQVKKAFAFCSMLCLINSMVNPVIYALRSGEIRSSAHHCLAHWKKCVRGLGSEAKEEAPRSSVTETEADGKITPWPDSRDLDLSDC
Protocol: as §1, §2, §3, §4, §5, §6

rCB2 = molecular target: T3, rCB2 (Rattus norvegicus, UniProt Q9QZN9); assay: cAMP assay, rCB2 in Table 7, agonist/inverse agonist; settings: intracellular cAMP; + agonist, − inverse agonist
T3 sequence (Q9QZN9 1-360): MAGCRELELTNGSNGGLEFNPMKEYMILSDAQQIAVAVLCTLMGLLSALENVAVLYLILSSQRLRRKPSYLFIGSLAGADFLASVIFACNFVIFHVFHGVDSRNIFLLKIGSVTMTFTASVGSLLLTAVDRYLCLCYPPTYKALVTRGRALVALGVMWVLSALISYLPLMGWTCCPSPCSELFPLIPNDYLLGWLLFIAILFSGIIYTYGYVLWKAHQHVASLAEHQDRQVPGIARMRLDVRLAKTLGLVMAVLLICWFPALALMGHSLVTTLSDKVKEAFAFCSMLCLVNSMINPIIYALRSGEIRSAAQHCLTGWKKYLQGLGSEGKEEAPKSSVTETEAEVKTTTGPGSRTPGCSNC
Protocol: as §3, §4, §5, §6

| SMILES | EC50 (hCB1) | hCB2 EC50 class (hCB2) | rCB2 EC50 class (rCB2) | hCB1 EC50 class (hCB1) |
| --- | --- | --- | --- | --- |
| O=c1c(-c2ccccc2)cc2c(n1CC1CCC1)CCCC2 [Compound 1, 1-(cyclobutylmethyl)-3-phenyl-5,6,7,8-tetrahydroquinolin-2(1H)-one] | > 10 µM | +B | +A |  |
| O=c1c(-c2ccccc2)cc2c(n1CC1CC1)CCCC2 [Compound 2, 1-(cyclopropylmethyl)-3-phenyl-5,6,7,8-tetrahydroquinolin-2(1H)-one] | > 10 µM | +B | +C |  |
| O=c1c(-c2cccc(F)c2)cc2c(n1CC1CC1)CCCC2 [Compound 4, 1-(cyclopropylmethyl)-3-(3-fluorophenyl)-5,6,7,8-tetrahydroquinolin-2(1H)-one] |  |  | +C | +C |
| O=c1c(-c2cc3c(n(CC4CCC4)c2=O)CCCC3)cc2c(n1CC1CCC1)CCCC2 [Compound 5, 1,1′-bis(cyclobutylmethyl)-5,5′,6,6′,7,7′,8,8′-octahydro-3,3′-biquinoline-2,2′(1H,1′H)-dione] |  | +A | +A | +C |
| O=c1c(-c2cccc(C(F)(F)F)c2)cc2c(n1CC1CCC1)CCCC2 [Compound 6, 1-(cyclobutylmethyl)-3-(3-(trifluoromethyl)phenyl)-5,6,7,8-tetrahydroquinolin-2(1H)-one] | > 10 µM | +A | +A |  |
| O=c1c(-c2ccc(C(F)(F)F)cc2)cc2c(n1CC1CCC1)CCCC2 [Compound 7, 1-(cyclobutylmethyl)-3-(4-(trifluoromethyl)phenyl)-5,6,7,8-tetrahydroquinolin-2(1H)-one] | > 10 µM | +A | +A |  |
| O=c1c(-c2cccc(Cl)c2)cc2c(n1CC1CCC1)CCCC2 [Compound 8, 3-(3-chlorophenyl)-1-(cyclobutylmethyl)-5,6,7,8-tetrahydroquinolin-2(1H)-one] | > 10 µM | +A | +A |  |
| O=c1c(-c2cccs2)cc2c(n1CC1CCC1)CCCC2 [Compound 9, 1-(cyclobutylmethyl)-3-(thiophen-2-yl)-5,6,7,8-tetrahydroquinolin-2(1H)-one] | > 10 µM | +B | +C |  |
| O=c1c(-c2cccnc2)cc2c(n1CC1CCC1)CCCC2 [Compound 10, 1-(cyclobutylmethyl)-3-(pyridin-3-yl)-5,6,7,8-tetrahydroquinolin-2(1H)-one] | > 10 µM | +B | +B |  |
| O=c1c(-c2ccoc2)cc2c(n1CC1CCC1)CCCC2 [Compound 12, 1-(cyclobutylmethyl)-3-(furan-3-yl)-5,6,7,8-tetrahydroquinolin-2(1H)-one] | > 10 µM | +C | +B |  |
| COc1ccncc1-c1cc2c(n(CC3CCC3)c1=O)CCCC2 [Compound 13, 1-(cyclobutylmethyl)-3-(4-methoxypyridin-3-yl)-5,6,7,8-tetrahydroquinolin-2(1H)-one] |  | +B |  |  |
| O=c1c(-c2ccccc2F)cc2c(n1CC1CCC1)CCCC2 [Compound 15, 1-(cyclobutylmethyl)-3-(2-fluorophenyl)-5,6,7,8-tetrahydroquinolin-2(1H)-one] | > 10 µM | +B | +B |  |
| O=c1c(C2=NN(c3ccccc3)C(c3ccco3)C2)cc2c(n1CC1CCC1)CCCC2 (stereo not drawn) [Compound 21, 1-(cyclobutylmethyl)-3-(5-(furan-2-yl)-1-phenyl-4,5-dihydro-1H-pyrazol-3-yl)-5,6,7,8-tetrahydroquinolin-2(1H)-one] |  | +C |  |  |
| O=c1c(-c2cccc(C(F)(F)F)c2)cc2c(n1CC1CCCCC1)CCCC2 [Compound 24, 1-(cyclohexylmethyl)-3-(3-(trifluoromethyl)phenyl)-5,6,7,8-tetrahydroquinolin-2(1H)-one] |  | +A |  | +B |
| Cc1noc(C)c1-c1cc2c(n(CC3CCC3)c1=O)CCCC2 [Compound 27, 1-(cyclobutylmethyl)-3-(3,5-dimethylisoxazol-4-yl)-5,6,7,8-tetrahydroquinolin-2(1H)-one] |  | +B |  |  |
| O=c1c(-c2cn[nH]c2)cc2c(n1CC1CCC1)CCCC2 [Compound 28, 1-(cyclobutylmethyl)-3-(1H-pyrazol-4-yl)-5,6,7,8-tetrahydroquinolin-2(1H)-one] | > 10 µM |  | −C |  |
| CC(C)(C)OC(=O)N1CCc2c(cc(-c3cccc(Cl)c3)c(=O)n2CC2CCC2)C1 [Compound 35, tert-butyl 3-(3-chlorophenyl)-1-(cyclobutylmethyl)-2-oxo-1,2,7,8-tetrahydro-1,6-naphthyridine-6(5H)-carboxylate] | > 10 µM |  | −B |  |
| CC(C)(C)OC(=O)N1CCc2c(cc(-c3ccc(C(F)(F)F)cc3)c(=O)n2CC2CCC2)C1 [Compound 36, tert-butyl 3-(4-(trifluoromethyl)phenyl)-1-(cyclobutylmethyl)-2-oxo-1,2,7,8-tetrahydro-1,6-naphthyridine-6(5H)-carboxylate] |  |  | −C |  |
| CC(C)(C)OC(=O)N1CCc2c(cc(-c3cccnc3)c(=O)n2CC2CCC2)C1 [Compound 37, tert-butyl 1-(cyclobutylmethyl)-2-oxo-3-(pyridin-3-yl)-1,2,7,8-tetrahydro-1,6-naphthyridine-6(5H)-carboxylate] |  |  | −C |  |
| O=C(c1ccno1)N1CCc2c(cc(-c3ccc(C(F)(F)F)cc3)c(=O)n2CC2CCC2)C1 [Compound 45, 1-(cyclobutylmethyl)-6-(isoxazole-5-carbonyl)-3-(4-(trifluoromethyl)phenyl)-5,6,7,8-tetrahydro-1,6-naphthyridin-2(1H)-one] | > 10 µM |  | −C |  |
| CC(C)C(=O)N1CCc2c(cc(-c3cccc(Cl)c3)c(=O)n2CC2CC2)C1 [Compound 51, 3-(3-chlorophenyl)-1-(cyclopropylmethyl)-6-isobutyryl-5,6,7,8-tetrahydro-1,6-naphthyridin-2(1H)-one] |  | +B |  |  |
| COc1cccc(-c2cc3c(n(CC4CCC4)c2=O)CCN(C(C)=O)C3)c1 [Compound 55, 6-acetyl-1-(cyclobutylmethyl)-3-(3-methoxyphenyl)-5,6,7,8-tetrahydro-1,6-naphthyridin-2(1H)-one] |  |  | −C | −B |
| O=c1c(-c2ccc(C(F)(F)F)cc2)cc2c(n1CC1CCC1)CCN(S(=O)(=O)c1ccccc1)C2 [Compound 56, 1-(cyclobutylmethyl)-6-(phenylsulfonyl)-3-(4-(trifluoromethyl)phenyl)-5,6,7,8-tetrahydro-1,6-naphthyridin-2(1H)-one] |  |  | −C | −B |
| O=c1c(-c2ccc(C(F)(F)F)cc2)cc2c(n1CC1CCC1)CCN(S(=O)(=O)c1cccc(F)c1)C2 [Compound 57, 1-(cyclobutylmethyl)-6-(3-fluorophenylsulfonyl)-3-(4-(trifluoromethyl)phenyl)-5,6,7,8-tetrahydro-1,6-naphthyridin-2(1H)-one] |  |  | −B |  |
